This note sets out measurements from US11634404B2 (priority 2016, dated 2023).

Assay type in all cases: cell-based
The target in one assay is D3 DAR (Homo sapiens (Human), UniProt P35462). To be noted: β-arrestin recruitment, agonist; for D3 Emax: 'curve' = wrapped cell 'curve interrupted'. (Recruitment of arrestin is a read-out of receptor activation apart from second messengers.)
Assay [1] has as its target T1, D2 DAR (Homo sapiens (Human), UniProt P14416). To be noted: β-arrestin recruitment, agonist; for D2 Emax: 'curve' = wrapped cell 'curve interrupted'.
For assay [2], the target named is T1, D2 DAR. To be noted: β-arrestin recruitment, antagonist.

Chain of D3 DAR (P35462 whole entry): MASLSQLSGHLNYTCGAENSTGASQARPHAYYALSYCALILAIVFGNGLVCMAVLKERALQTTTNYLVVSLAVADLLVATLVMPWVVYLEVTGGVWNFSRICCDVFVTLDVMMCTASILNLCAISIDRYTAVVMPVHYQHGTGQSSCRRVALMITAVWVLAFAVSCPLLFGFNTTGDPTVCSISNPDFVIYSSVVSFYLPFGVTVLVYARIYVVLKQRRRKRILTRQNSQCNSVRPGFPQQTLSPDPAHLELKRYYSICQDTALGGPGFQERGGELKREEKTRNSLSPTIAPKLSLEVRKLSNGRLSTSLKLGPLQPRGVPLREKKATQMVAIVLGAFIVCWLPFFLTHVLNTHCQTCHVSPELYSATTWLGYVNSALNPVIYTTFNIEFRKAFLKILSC
T1 sequence (P14416 whole entry): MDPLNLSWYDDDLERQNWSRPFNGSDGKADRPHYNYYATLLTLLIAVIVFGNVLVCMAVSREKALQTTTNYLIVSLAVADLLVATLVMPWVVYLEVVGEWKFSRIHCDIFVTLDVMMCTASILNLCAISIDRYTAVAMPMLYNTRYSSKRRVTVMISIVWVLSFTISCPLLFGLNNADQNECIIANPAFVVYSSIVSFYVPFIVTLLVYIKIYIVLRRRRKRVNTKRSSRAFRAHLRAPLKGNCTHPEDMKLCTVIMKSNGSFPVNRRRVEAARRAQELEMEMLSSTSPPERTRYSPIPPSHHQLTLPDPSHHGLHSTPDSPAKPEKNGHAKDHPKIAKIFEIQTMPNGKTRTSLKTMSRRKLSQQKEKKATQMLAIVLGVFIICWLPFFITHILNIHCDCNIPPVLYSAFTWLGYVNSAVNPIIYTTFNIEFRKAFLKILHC

For the molecule `COc1cccc(OCCN2CCN(C(=O)c3cc4ccccc4[nH]3)CC2)c1` [Compound 94], on D3 DAR, the EC50 (as a rule, the concentration at which the effect is half-maximal) was 33.8 nM.
Regarding `O=C(c1cc2ccccc2o1)N1CCN(CCOc2cccnc2)CC1` [Compound 88], the values for the EC50 at D3 DAR and at D2 DAR [1] were 42 nM and 1700 nM, respectively. Also, the “D2 IC50” value at D2 DAR [2] is given as “none”.
In the case of `O=C(c1cc2ccccc2[nH]1)N1CCN(CCOc2ccc([N+](=O)[O-])cc2)CC1` [Compound 103], at D2 DAR [1], the “D2 EC50” value was “none” and the “D2 Emax” value was “none”. Further, the “D2 IC50” value on D2 DAR [2] is “none”.
Take `COc1cccc(OCCN2CCN(C(=O)c3cc4cccnc4[nH]3)CC2)c1` [Compound 68]: the EC50 at D3 DAR is 50 nM; at D2 DAR [1] it was 128 nM. Also, at D2 DAR [2], the “D2 IC50” value is on record as “None”.
Take `CCc1ccc(OCCN2CCN(C(=O)c3cc4ccccc4[nH]3)CC2)cc1` [Compound 98]: at D2 DAR [1], the “D2 EC50” value is on record as “none” and the “D2 Emax” value is given as “none”. The IC50 (commonly the concentration needed to halve the response being measured) at D2 DAR [2] was over 50 µM.
For `O=C(c1cc2ccccc2[nH]1)N1CCN(CCOc2cccnc2)CC1` [Compound 106], the “D2 IC50” value at D2 DAR [2] is reported as “none”.
As to `COc1ccc(OCCN2CCN(C(=O)c3ccc(OC)cn3)CC2)cc1` [Compound 44], the EC50 at D3 DAR stood at 2100 nM. Further, on D2 DAR [1], the EC50 is over 50000 nM and the “D2 Emax” value is given as “curve”. In addition, at D2 DAR [2], the IC50 is over 100 µM.
As for `COc1ccc(OCCCN2CCN(C(=O)c3ccc(OC)cc3)CC2)cc1` [Compound 112], on D3 DAR, the “D3 EC50” value is “none” and the “D3 Emax” value is reported as “none”.
As for `O=C(c1cc2ccccc2o1)N1CCN(CCOc2cccnc2)CC1` [Compound 10], the figures for the EC50 on D3 DAR and at D2 DAR [1] were 42 nM and 1700 nM, respectively. In addition, the “D2 IC50” value on D2 DAR [2] was “None”.
On to `O=C(c1cc2cccc(Cl)c2[nH]1)N1CCN(CCOc2cccnc2)CC1` [Compound 77], for which, at D2 DAR [1], the EC50 came to 617 nM. For the same molecule, the “D2 IC50” value on D2 DAR [2] was “none”.
On to `COc1ccc(OCCCCN2CCN(C(=O)c3cc4ccccc4[nH]3)CC2)cc1` [Compound 123], for which, on D3 DAR, the “D3 EC50” value was “none” and the “D3 Emax” value was “none”.
Regarding `CC(C)(C)c1ccc(OCCN2CCN(C(=O)c3cc4ccccc4[nH]3)CC2)cc1` [Compound 99], on D3 DAR, the “D3 EC50” value is given as “none” and the “D3 Emax” value is recorded as “none”. Moreover, at D2 DAR [1], the “D2 EC50” value is listed as “none” and the “D2 Emax” value is “none”. The same molecule gave an IC50 at D2 DAR [2] of over 100 µM.
`Cn1c(C(=O)N2CCN(CCOc3cccnc3)CC2)cc2ccccc21` [Compound 81]: the figures for the EC50 on D3 DAR and on D2 DAR [1] were 37.6 nM and 6200 nM, respectively. Further, the “D2 IC50” value at D2 DAR [2] is listed as “none”.
In turn, `COc1ccc2cc(C(=O)N3CCN(CCOc4cccnc4)CC3)[nH]c2c1` [Compound 23] returned an EC50 at D3 DAR of 6.4 nM.
`COc1ccc(OCCN2CCN(C(=O)c3cc4cccc(OC)c4[nH]3)CC2)cc1` [Compound 45]: the EC50 was found to be 980 nM at D3 DAR and 6000 nM at D2 DAR [1]. At D2 DAR [2], this molecule came in with an IC50 of over 100 µM.
For the molecule `O=C(c1cc2ccccc2[nH]1)N1CCN(CCOc2ccc(Cl)cc2)CC1` [Compound 101], the EC50 on D3 DAR came out at 114 nM. For the same molecule, on D2 DAR [1], the “D2 EC50” value is listed as “none” and the “D2 Emax” value is on record as “none”. At D2 DAR [2], this molecule had an IC50 of over 50 µM.
`Cc1cccc2[nH]c(C(=O)N3CCN(CCOc4cccnc4)CC3)cc12` [Compound 76] came in with an EC50 at D2 DAR [1] of 180 nM. The “D2 IC50” value on D2 DAR [2] is “none”.
Turning to `O=C(c1cc2cccnc2[nH]1)N1CCN(CCOc2cccnc2)CC1` [Compound 4, (4-(2-(pyridin-3-yloxy)ethyl)piperazin-1-yl)(1H-pyrrolo[2,3-b]pyridin-2-yl)methanone], the EC50 on D3 DAR worked out at 13.5 nM.
The molecule `COc1ccc2[nH]c(C(=O)N3CCN(CCOc4cccnc4)CC3)cc2c1` [Compound 28] registered an EC50 at D2 DAR [1] of 2600 nM. The “D2 IC50” value at D2 DAR [2] is listed as “None”.
Take `O=C(c1cc2ccncc2[nH]1)N1CCN(CCOc2cccnc2)CC1` [Compound 8]: a half-maximal response on D3 DAR (EC50) required 81 nM.
Molecule `O=C(c1cc2cccc(Cl)c2[nH]1)N1CCN(CCOc2cccnc2)CC1` [Compound 21] yielded an EC50 on D2 DAR [1] of 617 nM. The “D2 IC50” value on D2 DAR [2] is reported as “None”.
For `O=C(c1cc2cc(Cl)ccc2[nH]1)N1CCN(CCOc2cccnc2)CC1` [Compound 19], in that order: 1400 nM and “None”.
At D3 DAR, `O=C(c1cc2ccccc2[nH]1)N1CCN(CCOc2ccc3[nH]ccc3c2)CC1` [Compound 16] came in with an EC50 of 60.9 nM.
In the case of `COc1ccc(OCCN2CCN(C(=O)c3cc4ccccc4s3)CC2)cc1` [Compound 61], at D3 DAR, the EC50 was found to be 3300 nM.
With `COc1ccc(OCCCN2CCN(C(=O)c3ccc(Cl)cc3)CC2)cc1` [Compound 115], at D3 DAR, the “D3 EC50” value was “none” and the “D3 Emax” value is given as “none”.
With `COc1ccc(OCCN2CCN(C(=O)c3cc4ccccc4o3)CC2)cc1` [Compound 62], at D2 DAR [1], the “D2 EC50” value is “none” and the “D2 Emax” value is on record as “none”. Besides, the IC50 on D2 DAR [2] was found to be 7.7 µM. In addition, the “D2 Imax” value on D2 DAR [2] ('curve' = wrapped cell 'curve interrupted') amounted to 100.
Take `COc1ccc(OC(C)CN2CCN(C(=O)c3cc4ccccc4[nH]3)CC2)cc1` (stereo not shown) [Compound 120]: a half-maximal effect at D3 DAR (EC50) was put at 82 nM.
Molecule `O=C(c1cc2c(Cl)cccc2[nH]1)N1CCN(CCOc2cccnc2)CC1` [Compound 80] showed an EC50 on D2 DAR [1] of 217 nM. At D2 DAR [2], the “D2 IC50” value is “none”.
As for `COc1ccc(OCCCN2CCN(C(=O)c3cc4ccccc4[nH]3)CC2)cc1` [Compound 122], at D3 DAR, the “D3 EC50” value was “none” and the “D3 Emax” value is “none”.
`O=C(c1cc2cc(Cl)ccc2[nH]1)N1CCN(CCOc2cccnc2)CC1` [Compound 79] gave an EC50 at D2 DAR [1] of 1400 nM. The “D2 IC50” value on D2 DAR [2] is listed as “none”.
As to `COc1ccc2cc(C(=O)N3CCN(CCOc4cccnc4)CC3)[nH]c2c1` [Compound 71], the EC50 on D3 DAR was determined as 6.4 nM.
`COc1ccc(OCCN2CCN(C(=O)c3cc4ncccc4[nH]3)CC2)cc1` [Compound 59]: at D2 DAR [1], the EC50 was over 100000 nM and the “D2 Emax” value is given as “curve”. For the same molecule, the “D2 IC50” value at D2 DAR [2] is given as “none”.
`O=C(c1cc2c(Cl)cccc2[nH]1)N1CCN(CCOc2cccnc2)CC1` [Compound 18]: at D2 DAR [1], the EC50 was determined as 217 nM. Moreover, the “D2 IC50” value on D2 DAR [2] is given as “None”.
For `O=C(c1cc2ccc(Cl)cc2[nH]1)N1CCN(CCOc2cccnc2)CC1` [Compound 78], in that order: 183 nM and “none”.
Molecule `COc1ccc(C(=O)N2CCN(CCOc3ccccc3OC)CC2)cc1` [Compound 34] yielded an EC50 at D3 DAR of 278 nM.
On to `COc1ccc(OCCN2CCN(C(=O)c3ccc4[nH]ccc4c3)CC2)cc1` [Compound 31], for which, on D2 DAR [1], the EC50 is 2500 nM. That is a single-digit micromolar value.
As to `O=C(c1cc2cccnc2[nH]1)N1CCN(CCOc2cccnc2)CC1` [Compound 83], the midpoint of the response at D3 DAR, the EC50, lay at 13.5 nM.
`O=C(c1nc2ccccc2[nH]1)N1CCN(CCOc2cccnc2)CC1` [Compound 5]: a half-maximal response at D2 DAR [1] (EC50) required 2400 nM. Further, the “D2 IC50” value at D2 DAR [2] is “None”.
For `Cc1cccc2[nH]c(C(=O)N3CCN(CCOc4cccnc4)CC3)cc12` [Compound 24] the same measures were 180 nM and “None”.
Consider `COc1cccc(OCCN2CCN(C(=O)c3cc4ccccc4[nH]3)CC2)c1` [Compound 92], for which, at D3 DAR, the “D3 EC50” value was “none” and the “D3 Emax” value is reported as “none”.
As to `COc1cccc(OCCN2CCN(C(=O)c3nc4ccccc4[nH]3)CC2)c1` [Compound 9], the EC50 on D3 DAR came out at 285 nM.
On the same count and under the same terms, then `Cc1cccc2cc(C(=O)N3CCN(CCOc4cccnc4)CC3)[nH]c12` [Compound 73], with 25.7 nM; and `COc1cccc(OCCN2CCN(C(=O)c3cc4ccccc4[nH]3)CC2)c1` [Compound 14], with 33.8 nM; and `COc1ccc(OCCN2CCN(C(=O)c3cc4ccc(Cl)cc4[nH]3)CC2)cc1` [Compound 52], with 225 nM.
As for `COc1ccc(OCCN2CCN(C(=O)c3cc4c(C)cccc4[nH]3)CC2)cc1` [Compound 30], the EC50 on D3 DAR was 266 nM.
Consider `O=C(c1n[nH]c2ccccc12)N1CCN(CCOc2cccnc2)CC1` [Compound 7], for which, at D2 DAR [1], the midpoint of the response, the EC50, lay at 4100 nM. The “D2 IC50” value at D2 DAR [2] is “None”.
Molecule `O=C(c1cc2ccc(Cl)cc2[nH]1)N1CCN(CCOc2cccnc2)CC1` [Compound 17] showed an EC50 on D2 DAR [1] of 183 nM. Moreover, the “D2 IC50” value on D2 DAR [2] is listed as “None”.
In the case of `O=C(c1cc2ccccc2[nH]1)N1CCN(CCOc2ccc(Br)cc2)CC1` [Compound 102], at D2 DAR [1], the “D2 EC50” value is recorded as “none” and the “D2 Emax” value is recorded as “none”. The same molecule displayed an IC50 at D2 DAR [2] of over 100 µM.
As for `COc1ccc(OCCN2CCN(C(=O)c3cc4cc(Cl)ccc4[nH]3)CC2)cc1` [Compound 53], at D2 DAR [1], the “D2 EC50” value was “none” and the “D2 Emax” value was “none”. In addition, the “D2 IC50” value on D2 DAR [2] was “none”.
The molecule `COc1ccc(OCCN2CCN(C(=O)c3cc4cccnc4[nH]3)CC2)cc1` [Compound 56] returned an EC50 at D3 DAR of 167 nM. In other words, the sub-micromolar range.
In the case of `COc1ccc(OCCN(C)CCN(C)C(=O)c2ccc(OC)cc2)cc1` [Compound 118], on D3 DAR, the “D3 EC50” value is listed as “none” and the “D3 Emax” value is “none”.
Take `CC(CN1CCN(C(=O)c2cc3ccccc3[nH]2)CC1)Oc1ccc(Cl)cc1` (stereo not shown) [Compound 121]: a half-maximal response on D3 DAR (EC50) required 32 nM.
In the case of `COc1ccc2[nH]c(C(=O)N3CCN(CCOc4cccnc4)CC3)cc2c1` [Compound 72], a half-maximal response at D2 DAR [1] (EC50) required 2600 nM. At D2 DAR [2], the “D2 IC50” value is “none”.
On to `Cc1cccc2cc(C(=O)N3CCN(CCOc4cccnc4)CC3)[nH]c12` [Compound 26], for which, on D3 DAR, it took 25.7 nM to reach a half-maximal effect (EC50).
In turn, `O=C(c1cc2ccccc2s1)N1CCN(CCOc2cccnc2)CC1` [Compound 6] displayed an EC50 on D3 DAR of 13.3 nM. This EC50 is about 1.9-fold lower than that of the molecule before.
Turning to `COc1ccc(CCCN2CCN(C(=O)c3ccc(OC)cc3)CC2)cc1` [Compound 113], at D3 DAR, the “D3 EC50” value is reported as “none” and the “D3 Emax” value is on record as “none”.
`COc1ccc(C(=O)N2CCN(CCOc3ccc4c(c3)OCO4)CC2)cc1` [Compound 66] had an EC50 at D2 DAR [1] of 7400 nM. Besides, on D2 DAR [2], the “D2 IC50” value is “None”.
